This passage reports IC50 and Ki results from patent publication US9605005B2, “Alkynyl alcohols and methods of use” (Genentech, Inc., priority 2013, dated 2017).

The test system of experiment [1] is p52 (NF-kB2) nuclear translocation, HeLa cells. The experiment can be described thus: p52 (NF-kB2) nuclear translocation assay in HeLa cells (non-classical NF-kB signaling, anti-lymphotoxin beta receptor antibody stimulated). It counts as cell-based. Particulars: Homo sapiens, 100 ng/mL anti-lymphotoxin beta receptor antibody for 5 hours, read-out: p52 HeLa Transloc Assay (IC50). Summed up:
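HeLa cells in 10% FBS medium were treated with compound (0.2% DMSO final) and stimulated with 100 ng/mL anti-lymphotoxin beta receptor antibody for 5 h. Fixed cells were immunostained for p52 and imaged with DRAQ5 nuclear stain. Translocation is the nuclear to cytoplasmic intensity ratio, and IC50 values are in micromolar.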

Experiment [2] relates to REL-A (p65) nuclear translocation, HeLa cells. The experiment can be described thus: REL-A (p65) nuclear translocation assay in HeLa cells (classical NF-kB signaling, TNF-α stimulated). Conditions: Homo sapiens, 0.5 h; HeLa cells, 10 ng/mL TNF-α for 30 minutes; read-out: REL-A HeLa Transloc Assay (IC50). It counts as cell-based. Summed up:
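HeLa cells were exposed to test compounds at various concentrations (0.2% DMSO final) in medium with 10% fetal bovine serum for 4.5 hours, then stimulated for 30 minutes with 10 ng/mL TNF-α. After fixation in 4% paraformaldehyde, 0.1% Triton X-100 permeabilization and staining with 400 ng/mL anti-REL-A (p65) antibody, Alexa488 secondary and DRAQ5, Opera imaging gave nuclear-to-cytoplasmic signal ratios to calculate IC50.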

The target in experiment [3] is nuclear factor-kappa B (NF-kB)-inducing kinase (NIK) (Homo sapiens (Human), UniProt Q99558). The experiment can be described thus: NIK enzyme inhibition assay (Transcreener ADP, NIK ADP-FP). It is filed as biochemical. Conditions: purified NIK 0.5 nM, 10 μM ATP, fluorescence polarization; read-out: NIK ADP-FP (Ki μM). On the technique in general: In fluorescence polarisation assays a small probe gives low polarisation when free and higher when bound to something large.
Chain of nuclear factor-kappa B (NF-kB)-inducing kinase (NIK) (Q99558 whole entry): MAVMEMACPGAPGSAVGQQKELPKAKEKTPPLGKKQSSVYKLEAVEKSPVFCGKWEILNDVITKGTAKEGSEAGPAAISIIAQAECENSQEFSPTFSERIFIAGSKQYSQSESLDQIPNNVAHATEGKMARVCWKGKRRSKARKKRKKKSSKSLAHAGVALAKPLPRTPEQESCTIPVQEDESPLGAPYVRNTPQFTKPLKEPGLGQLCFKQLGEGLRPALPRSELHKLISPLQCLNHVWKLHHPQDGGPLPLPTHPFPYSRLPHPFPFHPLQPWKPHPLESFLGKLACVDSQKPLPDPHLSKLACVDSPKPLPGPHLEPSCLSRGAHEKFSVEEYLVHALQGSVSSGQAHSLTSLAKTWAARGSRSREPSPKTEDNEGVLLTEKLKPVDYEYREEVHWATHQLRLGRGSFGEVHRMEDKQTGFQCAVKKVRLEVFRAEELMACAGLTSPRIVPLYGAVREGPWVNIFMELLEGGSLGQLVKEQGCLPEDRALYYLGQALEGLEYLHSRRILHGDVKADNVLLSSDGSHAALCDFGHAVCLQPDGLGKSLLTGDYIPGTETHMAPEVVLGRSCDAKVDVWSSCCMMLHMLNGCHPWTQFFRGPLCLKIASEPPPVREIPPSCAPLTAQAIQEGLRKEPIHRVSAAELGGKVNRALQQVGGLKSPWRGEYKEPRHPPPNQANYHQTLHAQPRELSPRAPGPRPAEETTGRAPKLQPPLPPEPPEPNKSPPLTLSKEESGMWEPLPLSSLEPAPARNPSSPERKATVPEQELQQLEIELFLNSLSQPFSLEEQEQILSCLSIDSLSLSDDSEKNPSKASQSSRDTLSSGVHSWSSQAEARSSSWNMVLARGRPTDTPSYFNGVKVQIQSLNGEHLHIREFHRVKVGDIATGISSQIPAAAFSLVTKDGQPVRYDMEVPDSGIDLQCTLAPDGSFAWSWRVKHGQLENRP

Regarding `C[C@@H]1CCc2c1c(C(N)=O)nn2-c1cccc(C#C[C@]2(O)CCN(C)C2=O)c1` [Compound 109, (4R)-1-[3-[2-[(3R)-3-hydroxy-1-methyl-2-oxo-pyrrolidin-3-yl]ethynyl]phenyl]-4-methyl-5,6-dihydro-4H-cyclo-penta[c]pyrazole-3-carbox-amide], the IC50 (in general, the concentration at which inhibition is half-maximal) in experiment [1] came out at 209 nM; in experiment [2] it was 20000 nM. Also, the Ki (commonly a measure of affinity in units of concentration, obtained from inhibition or displacement) in experiment [3] was determined as 9.58 nM.

Regarding `C[C@H]1CCc2c1c(C(N)=O)nn2-c1cccc(C#C[C@]2(O)CCN(C)C2=O)c1` [Compound 110, (4S)-1-[3-[2-[(3R)-3-hydroxy-1-methyl-2-oxo-pyrrolidin-3-yl]ethynyl]phenyl]-4-methyl-5,6-dihydro-4H-cyclo-penta[c]pyrazole-3-carbox-amide], the IC50 in experiment [1] was 244 nM; in experiment [2], 20000 nM. Also, the Ki in experiment [3] was 0.55 nM.

As for `CN1CC[C@@](O)(C#Cc2cc(C#N)cc(-n3nc(C(N)=O)c4cccnc43)c2)C1=O` [Compound 111, 1-[3-cyano-5-[2-[(3R)-3-hy-droxy-1-methyl-2-oxo-pyrroli-din-3-yl]ethynyl]phenyl] pyrazolo[3,4-b]pyridine-3-carboxamide], the figures for the IC50 in experiment [1] and in experiment [2] were 701 nM and 20000 nM, respectively. The Ki in experiment [3] worked out at 4.86 nM.

As to `CN1CC[C@@](O)(C#Cc2cccc(-n3nc(C(N)=O)c4cc(-c5cnn(CCO)c5)ccc43)c2)C1=O` [Compound 113, 5-[1-(2-hydroxyethyl)pyrazol-4-yl]-1-[3-[2-[(3R)-3-hy-droxy-1-methyl-2-oxo-pyrroli-din-3-yl]ethynyl]phenyl] indazole-3-carboxamide], the half-maximal inhibitory concentration (IC50) came out at 440 nM in experiment [1] and 20000 nM in experiment [2]. Also, in experiment [3], the Ki is 0.07 nM.

`CN1CC[C@@](O)(C#Cc2cccc(-n3nc(C(N)=O)c4cncnc43)c2)C1=O` [Compound 114, 1-[3-[2-[(3R)-3-hydroxy-1-methyl-2-oxo-pyrrolidin-3-yl]ethynyl]phenyl]pyrazolo [3,4-d]pyrimidine-3-carbox-amide]: the IC50 in experiment [1] stood at 39.4 nM; in experiment [2], 20000 nM. Also, in experiment [3], the Ki turned out to be 0.19 nM.

As to `C[C@@](O)(C#Cc1cccc(-n2nc(C(N)=O)c3ccccc32)c1)c1c[nH]nn1` [Compound 117, 1-[3-[(3R)-3-hydroxy-3-(1H-triazol-4-yl)but-1-ynyl]phe-nyl]indazole-3-carboxamide], the results for the half-inhibitory concentration (IC50) in experiment [1] and in experiment [2] were 74.3 nM and 20000 nM, respectively. Moreover, the Ki in experiment [3] is 0.32 nM.

Regarding `CN1CC[C@@](O)(C#Cc2cccc(-n3nc(C(N)=O)c4c3CCC4)c2)C1=O` [Compound 119, 1-[3-[2-[(3R)-3-hydroxy-1-methyl-2-oxo-pyrrolidin-3-yl]ethynyl]phenyl]-5,6-dihydro-4H-cyclopenta[c]pyrazole-3-carboxamide], the IC50 in experiment [1] was determined as 45.8 nM; in experiment [2], 20000 nM. In addition, the Ki in experiment [3] came out at 0.43 nM.

Turning to `CN1CC[C@@](O)(C#Cc2cccc(-n3nc(C(N)=O)c4c3CCN(c3ccncn3)C4)c2)C1=O` [Compound 120, 1-[3-[2-[(3R)-3-hydroxy-1-methyl-2-oxo-pyrrolidin-3-yl]ethynyl]phenyl]-5-pyrimi-din-4-yl-6,7-dihydro-4H-pyra-zolo[4,5-c]pyridine-3-carbox-amide], the IC50 amounted to 1430 nM in experiment [1] and 20000 nM in experiment [2]. In experiment [3], the Ki stood at 0.52 nM.

As to `CN1CC[C@@](O)(C#Cc2cccc(-n3nc(C(N)=O)c4c3CCN(c3ncccn3)C4)c2)C1=O` [Compound 121, 1-[3-[2-[(3R)-3-hydroxy-1-methyl-2-oxo-pyrrolidin-3-yl]ethynyl]phenyl]-5-pyrimi-din-2-yl-6,7-dihydro-4H-pyra-zolo[4,3-c]pyridine-3-carbox-amide], the IC50 in experiment [1] was found to be 203 nM; in experiment [2], 20000 nM. The Ki in experiment [3] was found to be 1.05 nM.

On to `CN1CC[C@@](O)(C#Cc2cccc(-n3nc(C(N)=O)c4c3CCN(c3nccs3)C4)c2)C1=O` [Compound 122, 1-[3-[2-[(3R)-3-hydroxy-1-methyl-2-oxo-pyrrolidin-3-yl]ethynyl]phenyl]-5-thiazol-2-yl-6,7-dihydro-4H-pyra-zolo[4,3-c]pyridine-3-carbox-amide], for which the values for the IC50 in experiment [1] and in experiment [2] were 266 nM and 20000 nM, respectively. Also, in experiment [3], the Ki stood at 0.29 nM.

In the case of `CCNc1nccc2c1c(C(N)=O)nn2-c1cccc(C#C[C@]2(O)CCN(C)C2=O)c1` [Compound 129, 4-(ethylamino)-1-[3-[2-[(3R)-3-hydroxy-1-methyl-2-oxo-pyrrolidin-3-yl]ethynyl]phenyl]pyrazolo[4,3-c]pyri-dine-3-carboxamide], the IC50 in experiment [1] worked out at 8.12 nM; in experiment [2] it was 4470 nM. In addition, the Ki in experiment [3] is 0.05 nM.

Regarding `CN1CC[C@@](O)(C#Cc2cccc(-n3nc(C(N)=O)c4c(NC5CC5)nccc43)c2)C1=O` [Compound 130, 4-(cyclopropylamino)-1-[3-[2-[(3R)-3-hydroxy-1-meth-yl-2-oxo-pyrrolidin-3-yl]eth-ynyl]phenyl]pyrazolo[4,3-c]pyridine-3-carboxamide], the IC50 is 53.1 nM in experiment [1] and 2000 nM in experiment [2]. Moreover, the Ki in experiment [3] worked out at 0.11 nM.

With `Cc1cc2c(cn1)c(C(N)=O)nn2-c1cccc(C#C[C@]2(O)CCN(C)C2=O)c1` [Compound 131, 1-[3-[2-[(3R)-3-hydroxy-1-methyl-2-oxo-pyrrolidin-3-yl]ethynyl]phenyl]-6-methyl-pyrazolo[4,3-c]pyridine-3-carboxamide], the IC50 in experiment [1] came out at 87 nM; in experiment [2], 20000 nM. The Ki in experiment [3] turned out to be 0.31 nM.

For `CN1CC[C@@](O)(C#Cc2cccc(-n3nc(C(N)=O)c4cnccc43)c2)C1=O` [Compound 132, 1-[3-[2-[(3R)-3-hydroxy-1-methyl-2-oxo-pyrrolidin-3-yl]ethynyl]phenyl]pyrazolo [4,3-c]pyridine-3-carboxamide], the IC50 in experiment [1] was found to be 88.7 nM; in experiment [2], 20000 nM. Further, the Ki in experiment [3] was determined as 0.378 nM.

On to `N#Cc1cc2c(cn1)c(C(N)=O)nn2-c1cccc(C#C[C@@]2(O)CCc3cccnc32)c1` [Compound 135, 6-cyano-1-[3-[2-[(7S)-7-hy-droxy-5,6-dihydrocyclopen-ta[b]pyridin-7-yl]ethynyl]phe-nyl]pyrazolo[4,3-c]pyridine-3-carboxamide], for which the IC50 was determined as 91.4 nM in experiment [1] and 20000 nM in experiment [2]. The Ki in experiment [3] is 0.7 nM.

As for `CCOc1cc2c(cn1)c(C(N)=O)nn2-c1cccc(C#C[C@]2(O)CCN(C)C2=O)c1` [Compound 136, 6-ethoxy-1-[3-[2-[(3R)-3-hy-droxy-1-methyl-2-oxo-pyrroli-din-3-yl]ethynyl]phenyl] pyrazolo[4,3-c]pyridine-3-carboxamide], the IC50 came out at 72.6 nM in experiment [1] and 20000 nM in experiment [2]. For the same compound, the Ki in experiment [3] came out at 0.39 nM.

For the compound `CN1CC[C@@](O)(C#Cc2cccc(-n3nc(C(N)=O)c4cnc(N5CCCC5)cc43)c2)C1=O` [Compound 137, 1-[3-[2-[(3R)-3-hydroxy-1-methyl-2-oxo-pyrrolidin-3-yl]ethynyl]phenyl]-6-pyrroli-din-1-yl-pyrazolo[4,3-c]pyri-dine-3-carboxamide], the results for the IC50 in experiment [1] and in experiment [2] were 33.8 nM and 20000 nM, respectively. In addition, the Ki in experiment [3] worked out at 0.25 nM.

In the case of `COc1cc2c(cn1)c(C(N)=O)nn2-c1cccc(C#C[C@]2(O)CCN(C)C2=O)c1` [Compound 140, 1-[3-[2-[(3R)-3-hydroxy-1-methyl-2-oxo-pyrrolidin-3-yl]ethynyl]phenyl]-6-methoxy-pyrazolo[4,3-c]pyridine-3-carboxamide], the IC50 in experiment [1] came out at 38.2 nM; in experiment [2] it was 8000 nM. For the same compound, in experiment [3], the Ki came to 0.05 nM.

As to `CCCC(=O)N(C)Cc1ccc2c(c1)c(C(N)=O)nn2-c1cc(C#C[C@]2(O)CCN(C)C2=O)ccn1` [Compound 142, 5-[[butanoyl(methyl)amino]methyl]-1-[4-[2-[(3R)-3-hy-droxy-1-methyl-2-oxo-pyrroli-din-3-yl]ethynyl]-2-pyri-dyl]indazole-3-carboxamide], the IC50 in experiment [1] was 793 nM; in experiment [2] it was 20000 nM. For the same compound, the Ki in experiment [3] is 1.71 nM.

`CN1CC[C@@](O)(C#Cc2cccc(-n3nc(C(N)=O)c4scnc43)c2)C1=O` [Compound 144, 1-[3-[2-[(3R)-3-hydroxy-1-methyl-2-oxo-pyrrolidin-3-yl]ethynyl]phenyl]pyrazolo [3,4-d]thiazole-3-carboxamide]: the IC50 in experiment [1] is 33.1 nM; in experiment [2] it was 20000 nM. Further, in experiment [3], the Ki came out at 0.31 nM.

For the compound `CN1CC[C@@](O)(C#Cc2ccc(F)c(-n3nc(C(N)=O)c4c3CCC4)c2)C1=O` [Compound 145, 1-[2-fluoro-5-[2-[(3R)-3-hy-droxy-1-methyl-2-oxo-pyrroli-din-3-yl]ethynyl]phenyl]-5,6-dihydro-4H-cyclopenta [c]pyrazole-3-carboxamide], the IC50 in experiment [1] was 266 nM; in experiment [2] it was 20000 nM. Besides, in experiment [3], the Ki turned out to be 1.24 nM.

Regarding `CN1CC[C@@](O)(C#Cc2cccc(-n3nc(C(N)=O)c4c3COC4)c2)C1=O` [Compound 146, 1-[3-[2-[(3R)-3-hydroxy-1-methyl-2-oxo-pyrrolidin-3-yl]ethynyl]phenyl]-4,6-dihydro-furo[3,4-c]pyrazole-3-carbox-amide], the values for the IC50 in experiment [1] and in experiment [2] were 220 nM and 20000 nM, respectively. Besides, the Ki in experiment [3] stood at 1.77 nM.
